Assay results published in patent US20120277161A1, “INHIBITION OF MULTIPLE CELL ACTIVATION PATHWAYS” (INTER-K PTY LIMITED, priority 2009, published 2012).

Key:
human Lyn = human Lyn (Homo sapiens, UniProt P07948); assay: Lyn kinase activity assay; assay type: biochemical; conditions: 20 μM
Description: In a final reaction volume of 25 μl, human Lyn is incubated with the RSKAKNPLYR peptide (SEQ ID No: 6) in 50 mM Tris buffer pH 7.5, 0.1 mM EGTA, 0.1 mM Na3VO4, 1% mercaptoethanol, 0.1 mg/ml poly(Glu,Tyr) 4:1, 10 mM Mg acetate and [γ-33P-ATP] (specific activity approx. 500 cpm/pmol). The reaction was initiated by the addition of the MgATP mix, incubated for 40 minutes at room temperature prior to being stopped and kinase activity assessed by scintillation counting as per the protocol described for c-Src described in Example 1.1.

[1] = tested on: HT-29 human colon cancer cells; assay: Apoptosis assay (FITC Annexin V / PI, FACS); assay type: cell-based; conditions: 10 μM, 4 hours; FIG. 11
Description: The cells were harvested by trypsinisation, washed twice in HBSS and counted counted using Trypan Blue staining. The cells were then re-suspended in the appropriate culture medium to a concentration of 1×10^6 cells/mL. […] The cells were allowed to attach to the plate for 1 h. […] Cells were then harvested by trypsinisation, washed twice in cold phosphate buffered saline (PBS) and then resuspended in 1× binding buffer. 100 μL of the cell suspensions containing 1×10^5 cells were transferred to a 5 mL plastic tube. […] Three controls were also analysed: unstained cells, cells stained only with Annexin V and cells stained only with PI. The data was presented as the percentage of cells being either Annexin V positive only (excluding PI positive cells), PI positive (total) or Annexin V and PI positive (double stain).

Chain of human Lyn (P07948 whole entry): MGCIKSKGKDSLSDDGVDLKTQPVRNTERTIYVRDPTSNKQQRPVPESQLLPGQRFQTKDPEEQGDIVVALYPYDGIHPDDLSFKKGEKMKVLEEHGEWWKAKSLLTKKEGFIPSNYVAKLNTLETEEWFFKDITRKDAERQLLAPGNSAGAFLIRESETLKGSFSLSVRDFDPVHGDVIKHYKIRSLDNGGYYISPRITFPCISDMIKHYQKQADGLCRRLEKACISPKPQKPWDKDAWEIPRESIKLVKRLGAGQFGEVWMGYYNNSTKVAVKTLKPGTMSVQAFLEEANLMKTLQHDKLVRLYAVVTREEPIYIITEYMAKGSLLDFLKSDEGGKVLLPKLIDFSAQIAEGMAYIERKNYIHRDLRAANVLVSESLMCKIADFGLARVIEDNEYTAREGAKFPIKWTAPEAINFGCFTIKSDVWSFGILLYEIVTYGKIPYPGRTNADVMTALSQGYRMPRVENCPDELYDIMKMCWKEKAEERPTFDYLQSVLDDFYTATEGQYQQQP

inhibition of the activity of c-Lyn relative to controls (human Lyn): 96%
Substance: Dend 10-10(4) whose RSKAKNPLYR peptides are entirely D-amino acids and pegylated with two ethylene glycol units [Dend 10-10(4)DP]
apoptosis in HT-29 cells [1]: substantial level of apoptosis
